Measured values: BindingDB's records for doi:10.7270/Q2CV4GM1 (D3R/Abbott, 2015)
“And” between values parts separate entries of the source, which are not always exact repeats. Identical values can stand only once.

Target: T1, Tyrosine-protein kinase SYK [355-635] (Homo sapiens, UniProt P43405)
T1 construct: 355-635
Test: SYK assay_HTRF

Row | Structure (SMILES) | IC50
1 | CCN(c1nc(Nc2cccc(-c3cccnc3)c2)ncc1F)c1cccc2[nH]ncc12 [GTC000340A] | 29.3 nM
2 | CCN(c1nc(Nc2cc(S(N)(=O)=O)ccc2OC)ncc1F)c1cccc2[nH]ncc12 [GTC000341A] | 30.5 nM
3 | CCN(c1nc(Nc2ccc(C)c(S(=O)(=O)NCCO)c2)ncc1F)c1cccc2[nH]ncc12 [GTC000343A] | 32.7 nM
4 | NC(=O)c1cccc(Nc2ncc(F)c(N(CCCO)c3cccc4[nH]ncc34)n2)c1 [GTC000344A] | 31.8 nM
5 | COCCCN(c1nc(Nc2cccc(C(N)=O)c2)ncc1F)c1cccc2[nH]ncc12 [GTC000346A] | 30.3 nM
6 | COCCCN(c1nc(Nc2cccc(S(C)(=O)=O)c2)ncc1F)c1cccc2[nH]ncc12 [GTC000347A] | 33.3 nM
7 | CN(c1nc(Nc2ccc(C(N)=O)cc2)ncc1F)c1cccc2[nH]ncc12 [GTC000351A] | 36.6 nM
8 | CN(c1nc(Nc2cccc(S(C)(=O)=O)c2)ncc1F)c1cccc2[nH]ncc12 [GTC000359A] | 87.3 nM
9 | CS(=O)(=O)c1cccc(Nc2ncc(F)c(N(CCCO)c3cccc4[nH]ncc34)n2)c1 [GTC000360A] | 79.4 nM
10 | CCN(c1nc(Nc2ccc(-c3cnco3)c(OC)c2)ncc1F)c1cccc2[nH]ncc12 [GTC000362A] | 87.3 nM
11 | CCN(c1nc(Nc2cc(S(N)(=O)=O)ccc2C)ncc1F)c1cccc2[nH]ncc12 [GTC000364A] | 102 nM
12 | CN(c1nc(Nc2cccc(C(N)=O)c2)ncc1F)c1cccc2[nH]ncc12 [GTC000366A] | 110 nM
13 | CCN(c1nc(Nc2ccc3c(C)n(CCCO)nc3c2)ncc1F)c1cccc2[nH]ncc12 [GTC000370A] | 188 nM
14 | NCCN(c1nc(Nc2ccc3c(c2)S(=O)(=O)CC3)ncc1F)c1cccc2[nH]ncc12 [GTC000371A] | 225 nM
15 | CCN(c1nc(Nc2cc(S(=O)(=O)NCC3CCCO3)ccc2OC)ncc1F)c1cccc2[nH]ncc12 (stereo unspecified) [GTC000373A] | 624 nM

More lines, now with the values ahead:

Row | IC50 | Structure (SMILES)
16 | 11.6 nM and 39.7 nM and 85.1 nM | CS(=O)(=O)c1cccc(Nc2nccc(N(CCCO)c3cccc4[nH]ncc34)n2)c1 [GTC000338A]
17 | 43.1 nM and 26.8 nM | CC(=O)N1CCC(CN(c2ccnc(Nc3ccc4[nH]c(=O)[nH]c4c3)n2)c2cccc3[nH]ncc23)CC1 [GTC000339A]
18 | 33.8 nM | CCN(c1nc(Nc2cccc(S(=O)(=O)NC3CC3)c2)ncc1F)c1cccc2[nH]ncc12 [GTC000342A]
19 | 30.8 nM | COCCN(c1ccnc(Nc2ccc3c(cnn3C)c2)n1)c1cccc2[nH]ncc12 [GTC000345A]
20 | 30.5 nM | CCN(c1nc(Nc2ccc(N)c(OC(C)=O)c2)ncc1F)c1cccc2[nH]ncc12 [GTC000348A]
21 | 35.9 nM | CCN(c1nc(Nc2ccc(C)c(S(N)(=O)=O)c2)ncc1F)c1cccc2[nH]ncc12 [GTC000349A]
22 | 40.6 nM | CCCN(c1nc(Nc2ccc3c(c2)S(=O)(=O)CC3)ncc1F)c1cccc2[nH]ncc12 [GTC000350A]
23 | 23.1 nM and 99.3 nM | COCCCN(c1ccnc(Nc2cccc(S(C)(=O)=O)c2)n1)c1cccc2[nH]ncc12 [GTC000352A]
24 | 32.5 nM and 109 nM | CCN(c1nc(Nc2ccc3c(c2)C(=O)N(C)C3)ncc1F)c1cccc2[nH]ncc12 [GTC000353A]
25 | 59 nM | CCN(c1nc(Nc2ccc3c(c2)CCN3C(=O)C(F)(F)F)ncc1F)c1cccc2[nH]ncc12 [GTC000354A]
26 | 56.9 nM | CCN(c1nc(Nc2cccc(S(N)(=O)=O)c2)ncc1Cl)c1cccc2[nH]ncc12 [GTC000355A]
27 | 59.3 nM | NS(=O)(=O)c1cccc(Nc2nccc(N(CCCCO)c3cccc4[nH]ncc34)n2)c1 [GTC000356A]
28 | 67.9 nM | CCN(c1nc(Nc2ccc3c(c2)NC(=O)CO3)ncc1F)c1cccc2[nH]ncc12 [GTC000357A]
29 | 81.8 nM | CNC(=O)CN(c1nc(Nc2ccc3c(c2)S(=O)(=O)NC3)ncc1F)c1cccc2[nH]ncc12 [GTC000358A]
30 | 72.3 nM | CCN(c1nc(Nc2ccc3[nH]c(=O)oc3c2)ncc1F)c1cccc2[nH]ncc12 [GTC000361A]
31 | 105 nM | CCN(c1nc(Nc2ccc(N3CCN(C)CC3)cc2)ncc1F)c1cccc2[nH]ncc12 [GTC000363A]
32 | 98.2 nM | NS(=O)(=O)c1cccc(Nc2nccc(N(CC(F)(F)F)c3cccc4[nH]ncc34)n2)c1 [GTC000365A]
33 | 81.5 nM and 174 nM and 157 nM and 171 nM | CNC(=O)CN(c1nc(Nc2ccc3c(c2)S(=O)(=O)CC3)ncc1F)c1cccc2[nH]ncc12 [GTC000367A]
34 | 229 nM and 88.3 nM | CCN(CC)CCCN(c1ccnc(Nc2ccc3c(c2)CNS3(=O)=O)n1)c1cccc2[nH]ncc12 [GTC000368A]
35 | 198 nM | NC(=O)CN(c1nc(Nc2ccc3c(c2)S(=O)(=O)CC3)ncc1F)c1cccc2[nH]ncc12 [GTC000369A]
36 | 244 nM | CCN(c1nc(Nc2ccc(C(=O)N3CCN(C)CC3)cc2)ncc1F)c1cccc2[nH]ncc12 [GTC000372A]
